In data set [1] the test system is FRTL-5. The data set is described as follows: Iodide sequestering activity in rat FRTL5 cells assessed as enhancement of intracellular iodide entrapment at 0.1 to 200 uM after 120 mins in dark by scintillation counting. The data set is classed as functional, cell-based.
In data set [2] the test system is FRTL-5. The data set is described as follows: Iodide sequestering activity in rat FRTL5 cells assessed as enhancement of intracellular iodide entrapment at 50 uM after 120 mins in dark by scintillation counting relative to sodium perchlorate. The data set is classed as functional.
Data set [3] in a line: Chemical stability assessed as photodecomposition-associated half life in MeCN using UV lamp. The note with it: MeCN solution irradiated with UV lamp. The data set is classed as physicochemical.
The subject of data set [4] is FRTL-5. The data set is described as follows: Iodide sequestering activity in rat FRTL5 cells assessed as enhancement of intracellular iodide entrapment at 200 uM after 120 mins in dark by scintillation counting relative to sodium perchlorate. The data set is classed as functional.
For data set [5], the system named is FRTL-5. The data set is described as follows: Iodide sequestering activity in rat FRTL5 cells assessed as enhancement of intracellular iodide entrapment after 120 mins in dark by scintillation counting. Type of data set: functional, cell-based. The note with it: for EC50: FRTL-5, 2 h.
The nature of data set [6]: Chemical stability in MeCN/H2O at 4mCi/mL. Type of data set: physicochemical.
Data set [7] concerns FRTL-5. The data set is described as follows: Iodide sequestering activity in rat FRTL5 cells assessed as enhancement of intracellular iodide entrapment at 20 uM after 120 mins in dark by scintillation counting relative to sodium perchlorate. Type of data set: functional.

The source made the active and inactive calls. The calls are words filed in the database; no cut-off is given here.

As to `[N-]=[N+]=Nc1ccc(-c2ccc(C3=CSC4=NCCN34)cc2)cc1`, the result in data set [1] was inactive.

For `O=C(c1ccccc1)c1ccc(C2=CSC3=NCCN23)cc1`, the “fold change (FC)” value in data set [2] is listed as 1.8. In data set [3], the half-life came out at 12 min. Further, the outcome in data set [1] was Active. For the same molecule, in data set [4], the “fold change (FC)” value came out at 2.5. In data set [5], the Activity result was “Dose-dependent effect” and the EC50 was 50 µM.

Consider `[3H]C1=C(c2ccc(C(=O)c3ccccc3)cc2)N2CCN=C2S1`, for which the Stability in data set [6] is 6 months.

As for `FC(F)(F)C1(c2ccc(C3=CSC4=NCCN34)cc2)N=N1`, the result in data set [1] was inactive.

As for `N#[N+]c1ccc(-c2ccc(C3=CSC4=NCCN34)cc2)cc1`, the result in data set [1] was inactive.

Turning to `C1=C(c2ccc(-c3ccccc3)cc2)N2CCN=C2S1`, the “fold change (FC)” value in data set [7] stood at 2.5. Further, in data set [5], the half-maximal effective concentration (EC50) came out at 20 µM.
